Measurements taken from article PMC11003925, “Antimicrobial activity and properties of de novo design of short synthetic lipopeptides” (Folia Microbiologica, 2024).
Converted amounts (≈) assume the structure as drawn. Where two headings read alike, the source gives them in different places. Residues, ends and D or L forms follow the SMILES beside them. *: point of attachment. Lithocholoyl = C[C@H](CCC(=O)*)[C@H]1CC[C@H]2[C@@H]3CC[C@@H]4C[C@H](O)CC[C@]4(C)[C@H]3CC[C@]12C

How the values were obtained:
[1] = tested on: E. coli DBM 3001; format: cell-based; details: DBM 3001, 25 h
Protocol: (§1) A Bioscreen C automated microbiology growth curve analysis system (Growth Curves, Piscataway, NJ, USA) was used for the quantitative determination of antimicrobial activity (minimal inhibitory concentration, MIC) of PAL/LCA-peptides. Optical density was measured with a wide bandpass filter (wavelength range 420–580 nm) at regular intervals and temperatures. This assay was performed in a special microtiter plate (10 × 10 wells) that allowed the simultaneous testing of a large number of samples against several microorganisms. The total testing volume was 100 µL, obtained by mixing 10 µL of microbial culture with OD600 equal to 0.1 with growth medium and a solution of the tested compounds. The positive controls were vancomycin and tetracycline for Bacillus subtilis (100 µg/mL) for Gram-positive bacteria, kanamycin, and tetracycline for Acinetobacter baumannii (100 µg/mL) for Gram-negative bacteria, and clotrimazole or amphotericin (100 µg/mL) for fungi. The maximal concentration of tested lipoproteins was 1 mg/mL. A pure growth medium was used as the negative control. The measurement period was 25 h. The lowest concentration with a 100% inhibition effect for 24 h of incubation was chosen as the MIC. The antibacterial activity of each compound was expressed as the minimum inhibitory concentration MIC (MIC is the lowest concentration of the compound needed to inhibit the growth of bacterial cells) and IC50 (IC50 is the concentration of the compound needed to inhibit the growth of bacterial cells by 50%).

[2] = tested on: E. faecalis DBM 3075; format: cell-based; details: for IC50: DBM 3075, 25 h
Protocol: as §1

[3] = tested on: Ps. aeruginosa DBM 3081; format: cell-based, Pseudomonas aeruginosa; details: 25 h
Protocol: as §1

[4] = tested on: B. subtilis DBM 3006; format: cell-based, Bacillus subtilis; details: for MIC: DBM 3006, 24 h; for IC50: DBM 3006, 25 h
Protocol: as §1

[5] = tested on: M. luteus DBM 3053; format: cell-based, Micrococcus luteus; details: for MIC: DBM 3053, 24 h; for IC50: DBM 3053, 25 h
Protocol: as §1

[6] = tested on: Staph. aureus DBM 3002; format: cell-based, Staphylococcus aureus; details: for MIC: 24 h; for IC50: 25 h
Protocol: as §1

[7] = tested on: Staph. aureus MRSA1; format: cell-based, Staphylococcus aureus; details: for MIC: 24 h; for IC50: 25 h
Protocol: as §1

[8] = tested on: C. tropicalis DBM 2166; format: cell-based, Candida tropicalis; details: for IC50: DBM 2166, 25 h
Protocol: as §1

[9] = tested on: Staph. aureus MRSA1; format: cell-based, Staphylococcus aureus; details: 2xMIC, 37 °C
Protocol: This assay was used to determine how quick the effect of PAL/LCA-peptides is on bacteria, as well as whether the activity of these compounds is dependent on the presence of active bacterial metabolism (Kamysz et al. [2007]). The bacterial cultures were incubated overnight at 37 °C in Mueller–Hinton’s broth 2 or potassium phosphate buffer (0.1 M, pH 7). Cultures were diluted to OD600 equal to 0.1 and divided into 2 samples, and the final volume of each sample was 1 mL; after that, they were centrifuged (5000 × g, 10 min) to collect bacteria. […] The samples were incubated at 37 °C. At specific time intervals, samples of bacterial suspension were taken, diluted, and spread on Petri dishes with Mueller–Hinton’s agar to count the number of surviving cells as colony-forming units (CFU). The whole experiment lasted 24 h.

[10] = tested on: bacterial membrane; assay: Membrane disruption (released lactate dehydrogenase activity); format: cell-based, Staphylococcus aureus; details: 1 h incubation at 37 °C, LDH kit, triplets
Protocol: The disruption of the microbial membrane was followed by the detection of lactate dehydrogenase activity released from the intracellular space using a Cytotoxicity Detection Kit (LDH) from Roche (Korzeniewski and Callewaert [1983]; Macurkova et al. [2014]) after 1 h incubation at 37 °C with the PAL/LCA-peptide. The culture supernatant was collected and incubated with the reaction mixture from the kit. In the first step, NAD^+ is reduced to NADH + H^+ by the LDH-catalyzed conversion of lactate to pyruvate. In the second step, the catalyst (diaphorase) transfers H/H^+ from NADH + H^+ to the tetrazolium salt 2-(4-iodophenyl)-3-(4-nitrophenyl)-5-phenyl-2H-tetrazolium chloride (INT), which is reduced to formazan. The formazan dye formed is red and water-soluble and gives a broad absorption maximum at 500 nm. An increase in the amount of dead or plasma membrane-damaged cells results in an increase in the LDH activity in the cell culture supernatant.
To determine the degree of damage to the cell membrane (%) by the tested substances, averages of absorbances (triplets) were calculated from the measured values for the samples, controls, and pure medium. Subsequently, the absorbance average for the clean medium (background) was subtracted from all averages obtained in this way. The degree of damage to the cell membrane by the tested substances was expressed as follows: membranedamage%=((AVZ-∅ANK)/(∅APK-ANK))∙100 ∅AVZ⋯averageabsorbanceofsample ∅ANK⋯averageabsorbanceofnegativecontrol ∅APK⋯averageabsorbanceofpositivecontrol

[11] = tested on: Staph. aureus; assay: Transmission electron microscopy of treated bacteria; format: cell-based, Staphylococcus aureus; details: 1 to 4 h incubation; media with (Mueller–Hinton broth 2) and without nutrients (potassium phosphate buffer)
Protocol: Pictures of damaged bacterial cells were obtained by transmission electron microscopy after 1 to 4 h of incubation. Cells of the Gram-positive bacterial strains were not stained. A JEOL JEM-1010 transmission electron microscope (JEOL, Tokyo, Japan) equipped with a MegaView III CCD camera was used for visualization, and evaluation was performed with the program for image analysis AnalySIS software v. 2.0 (Soft Imaging Systems). The samples were plated on a carbon-coated electron microscopic grid and observed with an accelerating voltage of 80 kV.

[12] = tested on: HEK293T; assay: Cytotoxicity assay (xCELLigence impedance); format: cell-based, human; details: 24 h exposure
Protocol: (§2) Experiments were carried out using an xCELLigence RTCA DP Instrument (Roche Diagnostics GmbH, Mannheim, Germany) which was placed into an incubator (37 °C and 5% CO2). Cell proliferation and cytotoxicity experiments were performed using modified 16-well plates (E-plate, Roche Diagnostics GmbH, Mannheim, Germany). Microelectrodes were attached to the bottom of the wells for the impedance-based detection of attachment, spreading, and proliferation of the cells (Stoddart [2011]). This system monitors cellular events in real time without the incorporation of labels by measuring electrical impedance across an interdigitated microelectrode integrated into the bottom of this special tissue culture plate. This impedance measurement improves upon conventional endpoint assays and provides quantitative information about the biological status of the cells, including cell number, adhesion, viability, and morphology. Ninety microliters of cultivation medium was used for the blank sample, and subsequently, 100 µL of HepG2 or HEK293T cell suspension (7 × 10^5 cells/mL) was added and placed into the incubator (37 °C, 95% humidity, 5% CO2). […] Chrysophsin-3 at a concentration of 100 µg/mL was used as a positive control and solvent (deionized water) as a negative control. Subsequent incubation was performed for at least an additional 24 h. The result of the measurement was viability curves. After the measurement, percentages of tissue culture growth inhibition were calculated for all the tested substances, as follows: %inhibition=(1-(ΔϕCIsample)/(ΔϕCIcontrol))·100
(§3) Δ∅CIsample … the difference between the first and last average CI (cell index) values of the tissue culture in the presence of the tested sample.
(§4) Δ∅CIcontrol … the difference between the first and last average CI values of the tissue culture itself.

[13] = tested on: HepG2; assay: Cytotoxicity assay (xCELLigence impedance); format: cell-based, human; details: for % inhibition: 24 h exposure
Protocol: as §2, §3, §4

[14] = tested on: A. baumannii DBM 3183; assay: microbe, parasite or virus in culture; format: cell-based, Acinetobacter baumannii; details: DBM 3183, 25 h
Protocol: as §1

[15] = tested on: plasmid pBluescript II KS-; assay: DNA binding assay (gel retardation); details: 50 ng DNA, 1 h room temperature, 1% agarose gel
Protocol: This assay was performed as described by Park et al. ([1998]), with a few modifications. […] The reaction mixture was incubated at room temperature for 1 h. Subsequently, 4 µL of native loading buffer (10% Ficol, 10 mM Tris–HCl (pH 7.5), 50 mM EDTA, 0.25% bromophenol blue) was added. An aliquot was applied to 1% agarose gel electrophoresis in 0.5xTris borate-EDTA buffer. Circular plasmid DNA was isolated from (Luria–Bertani medium with AMPI in final concentration 100 µg/mL) bacterial strain E. coli DH5α / pBluescriptII KS- that had been grown overnight, and linearization was performed overnight by enzymatic reaction using restriction endonuclease EcoRV at 37 °C. The evaluation was performed by visualizing the DNA with the intercalation dye Midori Green Advanced DNA Stain under UV light. Reduced electrophoretic mobility compared to the control is considered to be evidence of peptide binding to DNA.
According to the previous results, we decided to clarify one of the possible molecular interaction mechanisms, the ability of the studied lipopeptides to bind microbial plasmid DNA. Based on the assumption that pore formation is only one of the influencing factors, which arose from previous results, the effect on one of the possible intracellular targets, DNA, was determined. This determination was carried out on isolated plasmid DNA, specifically on two plasmids, pGreen 0029 and pBluescript II KS- in circular and linearized form.

How did the IC50 [1] turn out when `CC(C)C[C@H](NC(=O)CC[C@@H](C)[C@H]1CC[C@H]2[C@@H]3CC[C@@H]4C[C@H](O)CC[C@]4(C)[C@H]3CC[C@]12C)C(=O)N[C@H](C(=O)N[C@@H](CCCCN)C(=O)N[C@@H](CCCNC(=N)N)C(=O)N[C@@H](C)C(=O)NCC(N)=O)C(C)C` [SHP-1.3, LCA-LVKRAG-NH2] (Lithocholoyl-LVKRAG-NH2) was run?
The IC50 was “N / > 100.0 µg/mL”.

What about the MIC ([2]; DBM 3075, 24 h) of the same molecule?
Its MIC is 71.5 µg/mL (≈ 71.5 µM).

What about the IC50 [2] of the same molecule?
The IC50 was 100.0 µg/mL (≈ 100 µM).

And the IC50 [3]?
The IC50 was “N / > 100.0 µg/mL”.

And the MIC [4]?
Its MIC is 31.5 µg/mL (≈ 31.5 µM).

What about the IC50 [4] of the same molecule?
Its IC50 is 40.0 µg/mL (≈ 40 µM).

What about the MIC [5] of the same molecule?
The MIC was 5.5 µg/mL (≈ 5.5 µM).

What about the IC50 [5] of the same molecule?
Its IC50 is 10.0 µg/mL (≈ 10 µM).

What about the MIC [6] of the same molecule?
Its MIC is 33.0 µg/mL (≈ 33 µM).

And the IC50 [6]?
Its IC50 is 50.0 µg/mL (≈ 50 µM).

What about the MIC [7] of the same molecule?
The MIC was 30.6 µg/mL (≈ 30.6 µM).

What about the IC50 [7] of the same molecule?
Its IC50 is 50.0 µg/mL (≈ 50 µM).

What about the IC50 [8] of the same molecule?
Its IC50 is 30.0 µg/mL (≈ 30 µM).

And the MIC ([8]; first value of cell 'MIC / IC50', 100% inhibition for 24 h)?
The MIC was 10.3 µg/mL (≈ 10.3 µM).

What about the “bacteria killed within half an hour” value ([9]; about 10^7 cells, SHP-1.2 only in medium with nutrients, SHP-1.3 in both media) of the same molecule?
Its value is 100%.

And the “killing activity (%)” value ([9]; KP (potassium phosphate buffer, without nutrients))?
The value was 100 ± 18%.

And the “killing activity (%)” value ([9]; MHB (Mueller–Hinton broth II, with nutrients))?
The value was 100 ± 12%.

And the “Membrane damage (%)” value ([10]; KP (potassium phosphate buffer))?
Its value is 30 ± 5%.

And the “Membrane damage (%)” value ([10]; MHB (Mueller–Hinton broth II))?
Its value is 0 ± 5%.

What about the “morphological effect on bacterial cells (TEM)” value [11] of the same molecule?
The value was “damaging cellular envelopes”.

What about the “% inhibition” value ([12]; c 50 µg/mL) of the same molecule?
Its value is 63.8 ± 9.6%.

And the “% inhibition” value ([12]; c 100 µg/mL)?
Its value is 72.0 ± 10.8%.

What about the “% inhibition” value ([12]; c 200 µg/mL) of the same molecule?
The value was 84.1 ± 12.6%.

What about the “% inhibition” value ([13]; c 50 µg/mL) of the same molecule?
The value was 57.4 ± 8.6%.

And the “% inhibition” value ([13]; c 100 µg/mL)?
The value was 92.8 ± 13.9%.

What about the “% inhibition” value ([13]; c 200 µg/mL) of the same molecule?
The value was 97.8 ± 14.7%.

What about the “efficiency on HepG2 cells” value ([13]; concentration not given) of the same molecule?
Its value is 97%.

Which results are given for `CC(C)C[C@H](NC(=O)CC[C@@H](C)[C@H]1CC[C@H]2[C@@H]3CC[C@@H]4C[C@H](O)CC[C@]4(C)[C@H]3CC[C@]12C)C(=O)N[C@H](C(=O)N[C@@H](CCCCN)C(=O)NCC(=O)N[C@@H](C)C(=O)N[C@@H](CCCNC(=N)N)C(N)=O)C(C)C` [SHP-2.3, LCA-LVKGAR-NH2] (Lithocholoyl-LVKGAR-NH2)?
IC50 [14]: N / > 100.0 µg/mL; IC50 [1]: N / > 100.0 µg/mL; IC50 [2]: N / > 100.0 µg/mL; IC50 [3]: N / > 100.0 µg/mL; MIC [4]: 6.9 µg/mL (≈ 6.9 µM); IC50 [4]: 20.0 µg/mL (≈ 20 µM); MIC [5]: 1.6 µg/mL (≈ 1.6 µM); IC50 [5]: 5.0 µg/mL (≈ 5 µM); MIC [6]: 31.9 µg/mL (≈ 31.9 µM); IC50 [6]: 50.0 µg/mL (≈ 50 µM); MIC [7]: 25.1 µg/mL (≈ 25.1 µM); IC50 [7]: 50.0 µg/mL (≈ 50 µM); MIC ([8]; DBM 2166, 24 h): 56.4 µg/mL (≈ 56.4 µM); IC50 [8]: 75.0 µg/mL (≈ 75 µM); weight ratio lipopeptide:DNA influencing electrophoretic mobility ([15]; circular plasmid): 10.0; weight ratio lipopeptide:DNA influencing electrophoretic mobility ([15]; linearized plasmid): 10.0; morphological effect on bacterial cells (TEM) [11]: damaging cellular envelopes; % inhibition ([12]; c 50 µg/mL): 25.6 ± 3.8%; % inhibition ([12]; c 100 µg/mL): 42.2 ± 6.3%; % inhibition ([12]; c 200 µg/mL): 85.1 ± 12.8%; % inhibition ([13]; c 50 µg/mL): 7.4 ± 1.1%; % inhibition ([13]; c 100 µg/mL): 0.0 ± 2.2%
